Experimental data published in paper PMC5731250 (Cell, 2017).
Where two headings read alike, the source gives them in different places.

How the values were obtained:
male C57BL/6J mice [1] = assay: animal or person; assay type: in vivo; conditions: Mus musculus, ip, 1 h, read-out: ED50 (95% confidence intervals) Tail Flick
in vivo = conditions: male, C57BL/6J, mouse, ip
male C57BL/6J mice [2] = assay: animal or person; assay type: in vivo; conditions: Mus musculus, ip, 1 h, read-out: ED50 (95% confidence intervals) Hot Plate
MOR = conditions: operational model; ref DeWire et al., 2013; cited from earlier work

## CN1CC[C@]23c4c5ccc(O)c4O[C@H]2[C@@H](O)C=C[C@H]3[C@H]1C5 [Morphine]
Male C57BL/6J mice [1]
  ED50: 3.8 mg/kg
In vivo
  ED50: 33 mg/kg
In vivo; ED50 (95% confidence intervals) %O2 Saturation
  ED50: 79 mg/kg
Male C57BL/6J mice [2]
  ED50: 5.9 mg/kg

## COc1ccsc1CNCC[C@@]1(c2ccccn2)CCOC2(CCCC2)C1 [TRV-130]
MOR
  bias factor (G protein signaling over βarrestin pathway): 3
